Data reported in paper PMC6643437, “MicroRNA Biogenesis is Enhanced by Liposome-Encapsulated Pin1 Inhibitor in Hepatocellular Carcinoma” (Theranostics, 2019).

Columns and labels:
SK-Hep1 tumors [1] = assay: SK-Hep1 xenograft in BALB/c nude mice; format: in vivo
Procedure: SK-Hep1 cells during the exponential-growth phase were collected and suspended in saline solution containing 50% Matrigel (Corning) at 5 × 10^7/mL. Then 100 μL of cells were injected into female BALB/c nude mice (5 weeks old) subcutaneously. Tumor growth was recorded every 3 days, and the tumor volume was calculated as ab^2/2 (a, long diameter; b, short diameter). All mice were randomized into 4 groups (8 mice per group) when the tumor volume reached 150-200 mm^3 and then were intravenously injected with normal saline, LP, free API-1 or API-LP at the 4 mg/kg dosage once every two days. At the end of the treatment, tumors were removed from mice and RNAs were extracted for miRNA detection.
Quantitative RT-PCR was used to assess miRNA expression levels. Total RNAs were extracted by TRIzol reagent (Invitrogen) from cells and transcribed by M-MLV reverse transcriptase (Invitrogen). Hairpin-it^TM real-time PCR miRNA kit for miR-122, let-7a, miR-29b and miR-146a were purchased from Shanghai GenePharma Co., Ltd (China). The miRNA levels were determined by Applied Biosystems StepOne Plus Real-Time PCR Systems using SYBR green master mix (Thermo fisher). Small endogenous nucleolar U6 RNA was used as internal control for miRNA normalization.

[2] = In vivo safety study, single 100 mg/kg i.v. dose in BALB/c nude mice
Procedure: (§1) Safety of the liposomes in vivo was evaluated by blood biochemical analysis, H&E staining and Masson staining of tissues. Briefly, following i.v. administration of normal saline, LP, API-1 or API-LP in the BALB/c nude mice, the peripheral blood samples were collected using heparin and centrifuged for serum biochemical analysis. The tissue samples were simultaneously excised and fixed in 4% PFA. Blood ALT, AST, TBIL, ALB, UREA and total protein analyses were performed using BioAssay Systems blood chemistry assay kits following the manufacturer's instructions. The tissue samples were embedded in paraffin, then cut into 5 μm thick paraffin sections and subsequently placed on glass slide. The slides were stained with H&E. The histopathological alterations were observed and imaged with a light microscope (OLYMPUS BX43).

SK-Hep1 tumors [3] = tested on: SK-Hep1 tumors; set-up: method as in PMID 29381806; conditions: free API-1, mice, ref [15]; cited from earlier work
XPO5 = XPO5 subcellular distribution (confocal imaging, fractionation and Western blotting); format: cell-based, human; conditions: 1 μM, SK-Hep1
Procedure: SK-Hep1 cells cultured on glass coverslips after different treatments were fixed in 4% PFA for 20 min, permeabilized with 0.5% Triton X-100 for 10 min, blocked with 5% BSA, and then incubated with primary anti-XPO5 antibody at 4 °C overnight, followed by incubation with Alexa Fluor dye- conjugated secondary antibodies for 1 h. Then the nuclei were stained with DAPI for 5 min at room temperature before mounting in Immu-Mout (Thermo fisher). Confocal fluorescence images were captured using Leica TCS SP5 II confocal spectral microscope.
For total protein preparation, cells were lysed on ice for 20 min in the RIPA lysis buffer (Beyotime) with protease inhibitor cocktail (Bimake), followed by centrifugation at 12000 rpm for 10 min at 4 °C. The resultant proteins in the supernatants were stored at -80 °C or directly subjected to SDS-PAGE. For nuclear-cytoplasmic fractionation of proteins, RLN buffer (5 mM Tris-HCl pH 7.4, 1.5 mM MgCl2, 140 mM NaCl, 0.5% NP-40) was freshly prepared when used. SK-Hep1 cells were harvested and gently resuspended in 200 µL RLN buffer with protease inhibitor cocktail, followed by centrifugation at 300 g for 2 minutes at 4 °C, the resultant supernatants are the cytoplasmic proteins. […] The signals were detected using ECL reagents (Life Technologies).

SK-Hep1 cells = assay: MTT cell viability assay; format: cell-based, human; conditions: 72 h
Procedure: MTT assay was conducted to estimate cell viability. Briefly, SK-Hep1 cells were seeded in a 96-well culture plate (2000 cells/well) and then treated with different concentrations of API-LP or free API-1 at 72 h in a 5% CO2 incubator for indicated time. At the end of incubation, 10 µL of MTT solution (5 mg/mL) was added into each well. After a 3 h incubation, DMSO (100 μL) was added to dissolve the resultant purple formazan crystals. The absorbance was measured at 570 nm on Thermo Scientific Varioskan Flash Multimode Reader.

[4] = Pharmacokinetic study in BALB/c mice; format: in vivo; conditions: 10 mg/kg i.v.
Procedure: The pharmacokinetic performance of API-LP was assessed in BALB/c mice. Following overnight fasting, six mice were randomized into two groups and received i.v. injection of free API-1 in 1 × PBS (pH 7.4) with 5% DMSO and API-LP in 1 × PBS (pH 7.4), respectively, at 10 mg/kg dose. At the prescheduled sampling time points, 20 μL blood samples were collected through caudal vein bleeding into heparinized centrifuge tube, followed by the centrifugation to obtain plasma, which was then stored at -80 °C until determination of the drug concentration.
For API-1 quantitation, plasma samples were thawed to room temperature. API-1 was extracted using acetonitrile and quantified by HPLC with QTRAP 5500 tandem mass spectrometry (LC/MS/ MS) system. The pharmacokinetic parameters based on the measured concentrations were calculated using GraphPad Prism (GraphPad Software).

[5] = In vitro drug release by dialysis at pH 7.4; format: physicochemical; conditions: PBS pH 7.4 with 0.5% Tween-80, 37 °C
Procedure: In vitro release of API-1 from API-LP was investigated in a simulated blood pH environment (pH 7.4). Briefly, 1 mL API-LP diluted ten times in advance was used to determine the initial API-1 concentration, and the remaining 9 mL was dialyzed in a dialysis bag (3500 Da) in 50 mL PBS (pH 7.4) containing 0.5% Tween-80. The experiment was performed in triplicate at 37°C with shaking at 100 rpm for one week. Samples were withdrawn at prescheduled sampling time points and replaced with the same volume of release buffer each time. The samples were quantified by high performance liquid chromatography (HPLC).

[6] = Blood biochemistry and hepatic histopathology in tumor-bearing mice after multiple dosing; format: in vivo; conditions: 4 mg/kg i.v. once every two days
Procedure: as §1
In order to facilitate the judgment of the positivity and degree of hepatic injury of mice, an ace hepatic injury mice model was built by treating mice with tetracycline by gavage at dose of 500 mg/kg. Mice were fasted after oral tetracycline for 30 h and then were executed. The serum ALT, AST, TBIL and hepatic histopathological examinations were performed to evaluate liver injuries.
The experimental tissues were fixed with formalin and embedded in paraffin. Sections with 5 μm in thickness were prepared for H&E staining, Masson staining and immunostaining with anti-RIP3 antibody (Abcam). The images were acquired on an Olympus digital camera attached to a light microscope.

[7] = 4 mg/kg i.v. once every two days, SK-Hep1 xenograft

Substance: API-1
- body weight (SK-Hep1 tumors [1]; [7]): did not impact body weight
- tumor growth and tumor volume (SK-Hep1 tumors [1]; [7]): significantly suppressed tumor growth and reduced tumor volume
- biogenesis of mature miRNAs in tumor tissues (SK-Hep1 tumors [1]; 4 mg/kg, SK-Hep1 tumor tissues, real-time PCR): significantly increased biogenesis of miR-122, let-7a, miR-29b and miR-146a
- haematological or liver toxicity (blood biochemistry) [2]: neither free API-1 nor API-LP had haematological or liver toxicity
- efficacious dose to suppress HCC tumor growth in mice (SK-Hep1 tumors [3]): 5 mg/kg
- nucleus-to-cytoplasm export of XPO5 (XPO5): restored the export of XPO5 to cytoplasm
- inhibition of SK-Hep1 cell proliferation (MTT) (SK-Hep1 cells): inhibited SK-Hep1 cell proliferation in a dose-dependent manner
- API-1 plasma concentration at 24 h postdose [4]: 34.8 ng/mL
- Clearance ([4]; n=3): 72.75 ± 3.93 mL/h
- Half-life t1/2 ([4]; n=3): 6.31 ± 0.66 h
- release in the first 12 h of dialysis [5]: 81.6%
- ALT Mean [6]: 39.67 U/L
- AST Mean [6]: 133.67 U/L
- TBIL Mean [6]: 1.70 µmol/L
